ChEMBL document CHEMBL5338747, “Discovery of Quaternized Pyridine-Thiazole-Pleuromutilin Derivatives with Broad-Spectrum Antibacterial and Potent Anti-MRSA Activity” (J Med Chem, 2023)
Activity calls are given as the source filed them. The rule behind the calls is not given here.

What was measured:
[1] = AUC(0 to t) in Sprague-Dawley rat at 1 mg/kg, iv by LC-MS analysis; assay type: ADME, organism-based; set-up: dose 1 mg/kg, route iv; conditions: in vivo
[2] = test system: Cell membrane; assay: Disruption of bacterial cell membrane in methicillin-resistant Staphylococcus aureus ATCC 33591 assessed as reduction in green fluorescence intensity at MIC incubated for 2 hrs by MycoLightGreen1198/PI staining based confocal laser scanning microscopy; assay type: subcellular
[3] = test system: Staphylococcus aureus; assay: Antibacterial activity against methicillin-resistant Staphylococcus aureus ATCC 33591 infected in Kunming mouse assessed as reduction in bacterial load in kidney at 5 to 10 mg/kg, ip for 2 days starting from 1 hr post-infection by hematoxylin-eosin staining based analysis; assay type: functional, organism-based; conditions: dose 5-10 mg/kg, time 2.0 day
[4] = test system: Staphylococcus aureus; assay: Disruption of biofilm formation in methicillin-resistant Staphylococcus aureus ATCC 33591 assessed as inhibition of biofilm formation at MIC measured after 24 hrs by crystal violet staining based analysis; assay type: functional
[5] = test system: Staphylococcus aureus; assay: Bactericidal activity against methicillin-resistant Staphylococcus aureus ATCC 33591 assessed as reduction in bacterial colonies formation at 2XMIC incubated for 12 hrs in MHB followed by culturing on agar plate for 24 hrs by time-kill kinetics based analysis; assay type: functional; set-up: scale not given: the % may be the effect or the level left; conditions: time 36 hrs

C=C[C@]1(C)C[C@@H](OC(=O)CSc2nc(-c3cc[n+](Cc4ccc(C)cc4)cc3)cs2)[C@]2(C)[C@H](C)CC[C@]3(CCC(=O)[C@H]32)[C@@H](C)[C@@H]1O.[Br-]
AUC(0-t) [1]: 539 ng·h/mL
Activity [2]: Active
Activity [3]: Active
inhibition (INH) [4]: 57.97%
Activity [5]: 100%
